Reference: PMC11327196, “A phase 1 study to assess the absolute bioavailability, mass balance, pharmacokinetics, metabolism, and excretion of [^14C]-mobocertinib, an oral inhibitor of EGFR exon 20 insertion mutations, in healthy participants” (Investigational New Drugs, 2024)
Entries after “also recorded” stand apart in the source; their conditions may differ.

Columns and labels:
[1] = Safety assessments (adverse events) in healthy participants; assay type: in vivo, human
Experimental: Safety was evaluated based on the incidence and severity of AEs and changes from baseline in clinical laboratory results, vital signs, and ECG parameters. AEs were graded according to Common Terminology Criteria for Adverse Events version 5.0.

[2] = oral doses ranging from 5 to 180 mg; cited from earlier work
[3] = Period 1 absolute bioavailability study: plasma PK after IV microdose of [14C]-mobocertinib; assay type: in vivo, human
Experimental: This was a two-period, open-label, single-dose phase 1 study (NCT03811834) conducted at one clinical site (Celerion, Lincoln, Nebraska, USA) in healthy male participants. The primary objective of Period 1 was to determine the absolute bioavailability of mobocertinib following a single oral dose of 160 mg mobocertinib as capsules and a single intravenous (IV) microdose of 50 µg (~ 2 µCi) [^14C]-mobocertinib. The primary objectives of Period 2 were to (1) assess the cumulative excretion of total radioactivity in urine and feces (mass balance); (2) assess the metabolite profile of mobocertinib in plasma, urine, and feces; and (3) characterize the PK of mobocertinib, AP32960, and AP32914 in plasma, whole blood, and urine, and total radioactivity concentration equivalents in plasma and whole blood following a single oral dose of 160 mg (~ 100 µCi) [^14C]-mobocertinib as an oral solution. A sample size of 6 healthy males was selected without statistical considerations and deemed adequate to meet the study objectives. Furthermore, the sample size was limited based on clinical considerations for human ADME studies and to limit exposure to radioactivity.
On Day 1 of Period 1, following an overnight fast of at least 10 h, participants received a single 160 mg dose of non-radiolabeled mobocertinib as capsules. At 3.75 h post oral dosing (i.e., 15 min before the median oral tmax of ~ 4 h), participants received a nominal dose of 50 µg (~ 2 µCi) [^14C]-mobocertinib as a 15-minute IV infusion. However, due to nonspecific binding of [^14C]-mobocertinib to the dosing syringe and tubing, actual doses administered ranged from 36.8 to 38.7 µg (1.47 to 1.55 µCi). Participants were required to stay in the clinic from Day − 1 through at least the 96-hour blood draw (Day 5) or until a discharge criterion was met (i.e., ≥ 80% of the total administered radioactive dose was recovered in urine and fecal samples or excretion of radioactivity in urine and feces combined had declined to ≤ 1% of the total administered dose per day for ≥ 2 consecutive intervals), up to a maximum of 7 days postdose (Day 8). Blood samples for the measurement of plasma mobocertinib, AP32960, and AP32914 concentrations were collected predose and at 0.5, 1, 2, 3, 4, 5, 6, 8, 12, 24, 36, 48, 72, and 96 h after oral administration. Additional blood samples to determine [^14C]-total radioactivity, [^14C]-mobocertinib, [^14C]-AP32960, and [^14C]-AP32914 in plasma were collected at 3.75 h after oral dosing (i.e., predose for [^14C] assessments), at the end of the IV infusion, and at 10, 20, and 30 min, and 1, 2, 4, 8, 20, 32, 44, 68, and 92 h after the end of infusion. […] Urine and feces were collected before oral dosing (− 48–0 h); urine was collected over 0–3.75 h, 3.75–12 h and 12–24 h after oral dosing; feces were collected from 0 to 3.75 h and 3.75–24 h after oral dosing; both urine and feces were then collected over 24-hour intervals until a discharge criterion was met, or up to Day 8 (168 h postdose).
Plasma, whole blood, and urine samples were assayed for mobocertinib, AP32960, and AP32914 concentrations using liquid chromatography-tandem mass spectrometry (Q2 Solutions, Ithaca, New York, USA). The analytical range for each analyte was 0.250 to 500 ng/mL in whole blood and plasma, and 1.00 to 1000 ng/mL in urine. […] Urine and fecal samples were assayed for total radioactivity following the IV dose of [^14C]-mobocertinib in Period 1, and whole blood, plasma, urine, and fecal samples were assayed for total radioactivity following the oral dose of [^14C]-mobocertinib in Period 2 using liquid scintillation counting (LSC; Celerion, Lincoln, Nebraska, USA; LLOQs: Period 1 urine: 0.115–0.118 ng eq/g, feces: 0.720–0.759 ng eq/g; Period 2 whole blood: 87.3–112 ng eq/g, plasma: 116–132 ng eq/mL, urine: 37.8–46.8 ng eq/g, feces: 110–336 ng eq/g across participants). […]

[4] = Period 1, IV infusion 50 µg [14C]-mobocertinib, geometric mean (geometric CV%)
[5] = Period 1, IV infusion 50 µg [14C]-mobocertinib, normalized to a 160 mg dose, geometric mean (geometric CV%)

tmax ([3]; Period 1, 15-min IV infusion 50 µg (~2 µCi) [14C]-mobocertinib, median (range)) | CL/F (after IV administration, values represent CL) [3, 4] | Vz/F (after IV administration, values represent Vz) [3, 4] | t1/2z [3, 4] | AUC∞ [3, 5] | Cmax [3, 5] | Molecule | deaths or serious AEs ([1]; 7 healthy male participants, Periods 1 and 2) | severity of AEs ([1]; CTCAE version 5.0, both treatment periods) | participants who experienced at least 1 AE ([1]; Period 1) | participants who experienced at least 1 AE ([1]; Period 2) | overall safety and tolerability ([1]; both treatment periods) | incidence of most common AEs (constipation, diarrhea, and nausea, each) ([1]; each in 2 of 7 participants) | discontinuation because of AEs ([1]; eructation, nausea, salivary hypersecretion, vomiting on Day 1 of Period 1) | participants who experienced at least 1 AE ([1]; of 7 participants, whole study) | median time to maximum observed concentration (tmax) [2]
 |  |  |  |  |  | C=CC(=O)Nc1cc(Nc2ncc(C(=O)OC(C)C)c(-c3cn(C)c4ccccc34)n2)c(OC)cc1N(C)CCN(C)C [Mobocertinib] | no deaths or serious AEs | grade 1 (mild) | 6 | 4 | generally safe and well-tolerated; also recorded: no new safety signals observed | 29% | One participant discontinued the study early because of multiple AEs | 7 | 4 h
0.26 (0.26–1.25) h | 55.9 (30.0) L/h | 1791 (45.3) L | 22.2 (41.3) h | 2864 (30.0) ng*h/mL | 624.9 (43.6) ng/mL | [^14C]-mobocertinib |  |  |  |  |  |  |  |  | 
